Consider eight compounds from US9388405B2, “Method for identifying a subpopulation of mammalian cells with distinctive ribosome translation profiles” (priority 2009, dated 2016).

Molecules are shown by their SMILES.

Common to all, as to format: cell-based, human
The subject of experiment [1] is HEK293 CMV-fLUC #3, hTRdm-fLUC #13 and mTRdm-fLUC #45 subclones. Description: Translation elongation inhibitor single-Toxin and two-Toxin (100 nM TPA) dose response. Particulars: for reporter protein level versus untreated control: 25 uM inhibitor + 100 nM TPA, HEK293 mTRdm-fLUC #45 subclone; for low dose sufficient to reduce reporter protein levels below untreated control cells: HEK293 CMV-fLUC #3 and mTRdm-fLUC #45 subclones. As to the method: At sufficiently large doses, these inhibitors immediately stop protein translation, and the resulting protein turnover reduces reporter protein levels below untreated cell levels (<100% control).
For the HEK293 CMV-fLUC #3 (top panel) and mTRdm-fLUC #45 (bottom panel) subclones, anisomycin and emetine antagonized the TPA response at the lowest tested dose (10 nM) and reduced reporter protein levels 50-300% compared to the TPA single-Toxin assay. This contrasted with puromycin, which required a 250 nM concentration (25×) to initially reduce protein synthesis below the TPA Single-Toxin assay level in all three cell lines. […] For example, the CMV-fLUC #3 subclone required a 2.5 uM puromycin dose to correlate with the other inhibitors, which contrasted with hTRdm-fLUC #13 and mTRdm-fLUC #45 subclones which needed a 25 uM puromycin concentration (a 10× increase).
In this example (FIG. 33), single-Toxin and two-Toxin dose responses were used to define translational responses associated with translation inhibitors. Inhibitors of protein biosynthesis generally act by interfering with translational initiation (assembly of the components or structures required for translation) or elongation (enzymatic process of peptide synthesis and chain movement within the ribosome). A variety of translational inhibitors exist that affect each of these stages. Due to the fact that cap-dependent and cap-independent translation display distinct translational initiation mechanisms, this example focused on translational inhibitors associated with peptide elongation. Since the majority of these enzymatic processes are common to cap-dependent and cap-independent translation, any significant differences in chain elongation reflect differences in peptide synthesis.
A dose response single-Toxin assay was used to examine translation regulation in HEK293 cells (FIG. 33A). […] For example, translation inhibition stops reporter protein production, and protein turnover reduces reporter activity below the basal level. In this example, a 250 nM concentration of each inhibitor was sufficient to reduce protein synthesis below control cell levels in cap-dependent and cap-independent assays (FIG. 33A). Furthermore, any dose above 2.5 uM produced only minimal additional reductions in reporter protein activity supporting the theory that translation in these assays had ceased.
In a second effort, a two-Toxin dose response assay was performed by varying the concentration of the elongation inhibitors in combination with the 100 nM TPA activator (FIG. 33B). This combinatorial assay was designed to examine protein synthesis in stimulated cells preferentially translating the TR transcript. As in the single-Toxin assays, cap-dependent translation was arrested by 2.5 uM puromycin (top panel) which contrasted with the cap-independent assays where a 10× increase in puromycin concentration (25 uM) was needed to prevent new protein synthesis. However even at this highest tested dose, immediate translation inhibition was not observed in any cell line (FIG. 33C).

In experiment [2] the test system is MCF7 CMV-fLuc subclone #65. Description: Topoisomerase 1 inhibitor single-Toxin and two-Toxin (100 nM TPA) dose response, cap-dependent. Particulars: 10 nM to 10 uM; for effect on TPA-specific translational response: two-Toxin with constant 100 nM TPA; for effect on TPA-specific translational response / dose at peak of fLuc protein expression: cap-dependent; for dose at peak of fLuc protein expression: 6 hr. As to the method: FIG. 28A illustrates a dose response assay of the MCF7 CMV-fLuc subclone #65 treated with varying doses (10 nM to 10 uM range) of the following Topoisomerase 1 inhibitors: camptothecin, topotecan, irinotecan, and rubitecan. Following a 6 hr incubation in a single-Toxin assay, cells were lysed and fLuc protein activity measured using a standard microplate reader assay. The plate reader values were averaged and expressed as the ratio of treated to untreated samples (Fold Induction). The dashed line represents the level of translational response in untreated cell samples.
FIG. 28B illustrates the use of a Combinatorial Assay to examine the effects of Topoisomerase 1 inhibitors on cap-dependent translation. A series of dose response assays were performed on the MCF7 CMV-fLuc subclone #65 using varying doses of the Topoisomerase 1 inhibitors (10 nM to 10 uM range) in a Two-Toxin assay with a constant 100 nM TPA dose. The plate reader values were averaged and expressed as the ratio of treated to untreated samples (Fold Induction). The dashed line represents the level of translational response in untreated samples.
FIG. 28A illustrates a cap-dependent dose response assay of MCF7 cells treated with varying dosages (10 nM to 10 uM range) of the following TopoI inhibitors: camptothecin, topotecan, irinotecan, and rubitecan. […] While the altered irinotecan response might have been predicted based on its metabolic requirements, the lack of topotecan action on cap-dependent translation in the single-Toxin assays was unexpected.
Since similar doses inhibited translation in the single-Toxin assays (FIG. 28A), this effect might have represented a direct effect on translation.

The subject of experiment [3] is MCF7 mTRdm-fLuc subclone #27. Description: Topoisomerase 1 inhibitor single-Toxin and two-Toxin (100 nM TPA) dose response, cap-independent. Particulars: 10 nM to 10 uM; for effect on cap-independent translation: single-Toxin; for effect on TPA activity: two-Toxin with 100 nM TPA. As to the method: FIG. 28C illustrates the use of single-Toxin Assays to measure the effects of Topoisomerase 1 inhibitors on cap-independent translation in MCF7 cells. Triplicate samples of the MCF7 mTRdm-fLuc subclone #27 were treated with varying concentrations (10 nM to 10 uM range) of the Topoisomerase 1 inhibitors; camptothecin, rubitecan, irinotecan and topotecan. The plate reader values were averaged and expressed as the ratio of treated to untreated samples (Fold Induction). The dashed line represents the level of translational response in untreated controls.
FIG. 28D illustrates the use of a two-Toxin Combinatorial Assay on the MCF7 mTRdm-fLuc subclone #27 treated with 100 nM TPA plus varying doses (10 nM to 10 uM range) of the Topoisomerase 1 inhibitors. The plate reader values were averaged and expressed as the ratio of treated to untreated samples (Fold Induction). The dashed line represents the level of translational response in untreated samples. All four inhibitors acted synergistically with TPA to increase protein activity in the 10 nM two-Toxin assay.
FIG. 28D illustrates the use of a two-Toxin dose response assay using varying dosages of the TopoI inhibitors in combination with the 100 nM TPA translational activator. All four inhibitors acted synergistically with TPA at low doses to increase protein translation. At concentrations higher than 100 nM, camptothecin, rubitecan, and topotecan antagonized the TPA response and reduced the fLUC expression.

For experiment [4], the system named is MCF7 CMV-fLuc subclones #44 and #48. Description: PKC activator dose response, cap-dependent translation (fLuc). Conditions: single-Toxin. As for the experimental part:
Following 6 hr exposure to the Single-Toxin TPA assay, cells were lysed and fLuc protein activity measured using a standard microplate reader assay. The raw values were averaged and expressed as the ratio of treated to untreated samples (Fold Induction).
Dashed lines represent translational response levels produced by a 100 nM TPA Single-Toxin assay. The Bryostatin 1 concentrations (top panel) encompassed the TPA concentrations used in FIG. 27A. […] The Bryostatin 2 dose response curve (bottom panel) employed higher drug concentrations (the maximal tested dose was 5× the largest TPA and Bryostatin 1 amounts). At the highest tested dose (2.5 uM), Bryostatin 2 produced fLuc activity consistent with the level observed with 100 nM TPA.
In addition to measuring cap-dependent and cap-independent translational effects, Class-specific translational activity and toxin-defined actions, the previously described materials and methods allow for a variety of applications designed to detect and characterize agents and processes that regulate ribosome activity. In this example, comparative dose response assays were used to detect cap-dependent and cap-independent translational regulation in MCF7 cells. The basis for this application was the observation that distinct translational responses are produced by compounds at different doses. When an assortment of compounds act on a common molecular target, they can be grouped into a genus of related drugs. By comparing individual species of a compound genus over a defined dose range, differences in translational regulation can be defined. Furthermore, these translational differences can often be linked to biological differences.
In this example (FIG. 27), the three PKC activators produced similar dose response trends in cap-dependent assays. […] However, macrolide lactones produced translational increases that were generally 60-70% of the TPA translational response (FIG. 27B). In fact, a 25 fold increase in Bryostatin 2 concentration (2.5 uM) was needed to produce a translational magnitude similar to the 100 nM TPA assay (FIG. 27B).

For experiment [5], the system named is MCF7 mTRdm-fLuc subclones #8, #27, and #45. Description: PKC activator dose response, cap-independent TR translation (fLuc). Conditions: single-Toxin. As to the method: Following 6 hr culture with a TPA single-Toxin assay, cells were lysed and fLuc protein activity measured using a standard microplate reader assay. The plate reader values were averaged and expressed as the ratio of treated to untreated samples (Fold Induction).
As with FIG. 27B, dashed lines represent translational response levels achieved by the 100 nM TPA assay in each cell line. […] A further difference between the cap-dependent and cap-independent assays was the observation that increased Bryostatin 2 concentrations (5× the maximal TPA dose) never produced fLUC activity equivalent to the 100 nM TPA assay. Thus, the Toxin Assay procedure can detect a statistically significant difference in cap-dependent and cap-independent translation in compounds that activate PKC activity.
In the cap-independent assays, a similar dose response trend was observed over a 1 nM to 250 nM range with a translational peak at a 100 nM dose. However, the magnitude of the Bryostatin increases were generally 30% of 100 nM TPA response.

As for `C[C@@H]1C[C@@H]([C@H](O)CC2CC(=O)NC(=O)C2)C(=O)[C@@H](C)C1` [cycloheximide], the “reporter protein level versus untreated control” value in experiment [1] was “little or no reduction below untreated control cell levels”.
Take `CCc1c2c(nc3ccc(OC(=O)N4CCC(N5CCCCC5)CC4)cc13)-c1cc3c(c(=O)n1C2)COC(=O)[C@]3(O)CC` [irinotecan]: the “effect on cap-dependent translation” value in experiment [2] (single-Toxin) was “neither topotecan or irinotecan significantly altered cap-dependent translation”. In addition, in experiment [2], the “effect on TPA-specific translational response” value is given as “did not produce any significant change in the TPA-specific translational response”. Further, in experiment [3], the “effect on cap-independent translation” value is listed as “constant amount of fLUC activity at all tested concentrations”; the “effect on TPA activity” value is “displayed synergistic action with TPA and enhanced fLUC activity at all tested doses”.
For the compound `CCC/C=C/C=C/C(=O)O[C@H]1/C(=C/C(=O)OC)C[C@H]2C[C@H]([C@@H](C)O)OC(=O)C[C@H](O)C[C@@H]3C[C@H](OC(C)=O)C(C)(C)[C@](O)(C[C@@H]4C/C(=C/C(=O)OC)C[C@H](/C=C/C(C)(C)[C@]1(O)O2)O4)O3` [Bryostatin 1], the “magnitude of reporter activity versus 100 nM TPA assay” value in experiment [4] (500 pM to 500 nM) is “never reached the fLuc activity level produced by the 100 nM TPA assay”. Also, the “dose giving maximal reporter level (translational peak)” value in experiment [4] (6 hr) was determined as 100 nM. For the same compound, the “magnitude of translational response versus 100 nM TPA tests” value in experiment [5] was “never reached the fLuc activity produced in 100 nM TPA tests”. Further, the “dose giving peak fLuc protein activity” value in experiment [5] (6 hr) is 100 nM.
For the compound `CC[C@@]1(O)C(=O)OCc2c1cc1n(c2=O)Cc2cc3c([N+](=O)[O-])cccc3nc2-1` [rubitecan], the “dose at peak of fLuc protein expression” value in experiment [2] (single-Toxin) was around 1 µM. Also, in experiment [2], the “effect on TPA-specific translational response” value was “acted synergistically with TPA to increase fLUC protein activity up to a 1 uM dose”. For the same compound, in experiment [3], the “effect on cap-independent translation” value is “exhibited reduced fLUC activity at higher doses (5 uM and 10 uM)”; the “effect on TPA activity” value is “antagonized the TPA activity and exhibited reduced fLUC expression”.
On to `COc1ccc(C[C@H](N)C(=O)N[C@H]2[C@@H](O)[C@H](n3cnc4c(N(C)C)ncnc43)O[C@@H]2CO)cc1` [puromycin], for which the “reporter protein level versus untreated control” value in experiment [1] is given as “little or no reduction below untreated control cell levels”. Moreover, the “concentration required to reduce reporter protein levels to levels comparable to the other three inhibitors” value in experiment [1] (single-Toxin, cap-dependent and cap-independent) was determined as 2.5 µM. Further, the “dose required to correlate with the other inhibitors (translation arrested)” value in experiment [1] (two-Toxin with 100 nM TPA, CMV-fLUC #3 subclone, cap-dependent) is 2.5 µM. The “concentration required to initially reduce protein synthesis below the TPA Single-Toxin assay level” value in experiment [1] (two-Toxin with 100 nM TPA, all three cell lines) is recorded as 250 nM. Also, in experiment [1] (two-Toxin with 100 nM TPA, hTRdm-fLUC #13 and mTRdm-fLUC #45, cap-independent), the “concentration needed to correlate with the other inhibitors (prevent new protein synthesis)” value came to 25 µM.
As to `CC[C@H]1CN2CCc3cc(OC)c(OC)cc3[C@@H]2C[C@@H]1C[C@H]1NCCc2cc(OC)c(OC)cc21` [emetine], in experiment [1], the “reporter protein level versus untreated control” value is recorded as “little or no reduction below untreated control cell levels”. Besides, the “low dose sufficient to reduce reporter protein levels below untreated control cells” value in experiment [1] (single-Toxin) is 100 nM.
Take `CC[C@@]1(O)C(=O)OCc2c1cc1n(c2=O)Cc2cc3ccccc3nc2-1` [camptothecin]: the “dose at peak of fLuc protein expression” value in experiment [2] (single-Toxin) is around 1 µM. In addition, the “effect on TPA-specific translational response” value in experiment [2] is “acted synergistically with TPA to increase fLUC protein activity up to a 1 uM dose”. For the same compound, in experiment [3], the “effect on cap-independent translation” value was “exhibited reduced fLUC activity at higher doses (5 uM and 10 uM)”; the “effect on TPA activity” value is “antagonized the TPA activity and exhibited reduced fLUC expression”.
`COc1ccc(C[C@H]2NC[C@H](O)[C@H]2OC(C)=O)cc1` [anisomycin]: in experiment [1] (10 nM inhibitor + 100 nM TPA, CMV-fLUC #3 and mTRdm-fLUC #45), the “reduction of reporter protein levels compared to the TPA single-Toxin assay” value is 50-300%. In addition, the “low dose sufficient to reduce reporter protein levels below untreated control cells” value in experiment [1] (single-Toxin) is around 25 nM.
